For test [1], the target named is LRRK2 (Homo sapiens, UniProt Q5S007). The experiment in a line: LRRK2 assay (LanthaScreen Eu Kinase Binding Assay). Conditions: 5 nM LRRK2, 10 nM tracer 236, RT 1 h; read-out: LRRK2 Activites: IC50. The text has this:
Binding of the tracer to the kinase is detected using a europium-labeled anti-tag antibody, which binds to the kinase of interest. […] Binding of an inhibitor to the kinase competes for binding with the tracer, resulting in a loss of FRET. The fluorescence intensity ratio is directly proportional to the amount of peptide phosphorylation.
The inhibitor concentration was plotted versus the emission ratio to determine the IC50 using XLFit 5.0 (IDBS, Guildford) to fit to a sigmoidal dose response curve with a variable slope.

The target in test [2] is T1, SYK kinase (Homo sapiens, UniProt P43405).
T1 construct: purchased Invitrogen, Carlsbad
The experiment in a line: SYK assay (OMNIA Kinase Assay, Invitrogen). The note with it: apparent Ki calculated from the IC50 using the Cheng-Prusoff equation; 1 mM ATP, 10 μM Peptide Substrate; read-out: SYK Activities: Ki. Format: biochemical. An outline of the steps:
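Reaction velocities were measured from kinetic fluorescence reads (360/485 nm, every 30 s over 30 min) of Mg2+-chelated SOX signal. Conditions were 1 mM ATP, 10 μM Omnia Tyr 7 peptide and 0.2 mM DTT at 30° C. Sigmoidal IC50 fits were converted to apparent Ki using Cheng-Prusoff.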

Consider 26 compounds from patent publication US9499535B2, “Kinase inhibitors” (ORIGENIS GMBH, priority 2011, dated 2016).

Sequence of LRRK2 (Q5S007 970-2527 limits assumed): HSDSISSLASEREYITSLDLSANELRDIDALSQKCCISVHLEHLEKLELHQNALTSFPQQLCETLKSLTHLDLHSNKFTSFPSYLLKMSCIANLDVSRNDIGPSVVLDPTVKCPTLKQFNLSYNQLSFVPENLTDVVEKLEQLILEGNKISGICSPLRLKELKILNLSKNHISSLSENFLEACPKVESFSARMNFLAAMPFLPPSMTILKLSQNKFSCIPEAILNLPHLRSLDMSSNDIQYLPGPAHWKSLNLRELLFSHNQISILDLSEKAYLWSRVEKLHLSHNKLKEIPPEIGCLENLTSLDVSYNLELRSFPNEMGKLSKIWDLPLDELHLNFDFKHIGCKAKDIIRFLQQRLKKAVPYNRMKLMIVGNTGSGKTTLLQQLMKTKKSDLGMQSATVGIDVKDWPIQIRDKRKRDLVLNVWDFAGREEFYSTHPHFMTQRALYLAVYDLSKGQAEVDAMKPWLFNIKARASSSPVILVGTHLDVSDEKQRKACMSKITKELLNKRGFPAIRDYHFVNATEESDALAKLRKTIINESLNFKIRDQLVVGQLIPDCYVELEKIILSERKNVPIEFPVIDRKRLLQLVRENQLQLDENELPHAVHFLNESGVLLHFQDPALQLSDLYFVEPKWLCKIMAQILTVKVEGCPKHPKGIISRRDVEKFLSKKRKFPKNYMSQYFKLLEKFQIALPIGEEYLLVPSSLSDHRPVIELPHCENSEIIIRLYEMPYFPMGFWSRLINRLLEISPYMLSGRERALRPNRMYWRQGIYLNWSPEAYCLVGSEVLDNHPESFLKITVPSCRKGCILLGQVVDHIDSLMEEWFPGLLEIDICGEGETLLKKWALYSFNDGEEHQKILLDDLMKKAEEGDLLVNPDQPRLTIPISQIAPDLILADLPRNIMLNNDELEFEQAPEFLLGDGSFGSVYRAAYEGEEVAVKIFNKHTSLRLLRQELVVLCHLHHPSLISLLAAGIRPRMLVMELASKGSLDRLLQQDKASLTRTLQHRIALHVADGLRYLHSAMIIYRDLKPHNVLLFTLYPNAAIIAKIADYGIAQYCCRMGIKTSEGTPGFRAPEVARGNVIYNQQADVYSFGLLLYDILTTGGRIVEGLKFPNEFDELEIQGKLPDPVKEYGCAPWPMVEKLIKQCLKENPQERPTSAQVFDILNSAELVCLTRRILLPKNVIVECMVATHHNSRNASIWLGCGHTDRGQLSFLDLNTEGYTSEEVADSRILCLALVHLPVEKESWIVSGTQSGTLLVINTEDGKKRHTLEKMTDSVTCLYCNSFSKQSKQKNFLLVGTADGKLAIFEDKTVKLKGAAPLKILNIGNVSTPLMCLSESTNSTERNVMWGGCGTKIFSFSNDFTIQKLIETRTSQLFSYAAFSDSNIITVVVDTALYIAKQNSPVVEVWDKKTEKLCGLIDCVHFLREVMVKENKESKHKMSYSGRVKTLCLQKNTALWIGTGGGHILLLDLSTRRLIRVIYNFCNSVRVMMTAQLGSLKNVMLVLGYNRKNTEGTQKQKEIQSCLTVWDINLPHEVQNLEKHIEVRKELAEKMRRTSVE

As to `COc1ccc2nc(Nc3cc(F)c(F)c(F)c3)c3n[nH]cc3c2c1` [Example #317, 8-methoxy-N-(3,4,5-trifluorophenyl)-2H-pyrazolo[3,4-c]quinolin-4-amine], the IC50 in test [1] was 100 to 1000 nM. The Ki in test [2] is 10 to 100 nM.

Consider `O=C(c1ccc(Nc2nc3ccc(I)cc3c3cn[nH]c23)cc1)N1CCCC1` [Example #356, (4-((8-iodo-3H-pyrazolo[3,4-c]quinolin-4-yl)amino)phenyl)(pyrrolidin-1-yl)methanone], for which the IC50 in test [1] was 100 to 1000 nM. The Ki in test [2] was 100 to 1000 nM.

Turning to `COc1ccc2c(c1)nc(Nc1ccc3[nH]ncc3c1)c1n[nH]cc12` [Example #256, (1H-Indazol-5-yl)-(7-methoxy-2H-pyrazolo[3,4-c]quinolin-4-yl)-amine], the IC50 in test [1] was 100 to 1000 nM. For the same compound, the Ki in test [2] is 10 to 100 nM.

Take `COc1ccc2nc(Nc3ccc4oc(=O)[nH]c4c3)c3[nH]ncc3c2c1` [Example #108, 5-(8-Methoxy-3H-pyrazolo[3,4-c]quinolin-4-ylamino)-3H-benzooxazol-2-one]: in test [1], the IC50 fell in the range of 100 to 1000 nM. The Ki in test [2] was 100 to 1000 nM.

Take `COc1ccc2nc(Nc3ccc(S(=O)(=O)N(C)C)cc3)c3n[nH]cc3c2c1` [Example #343, 4-((8-methoxy-2H-pyrazolo[3,4-c]quinolin-4-yl)amino)-N,N-dimethylbenzenesulfonamide]: the IC50 in test [1] lay within 100 to 1000 nM. Besides, the Ki in test [2] is 10 to 100 nM.

On to `COc1cc2nc(Nc3ccc(N(C)C)cc3)c3n[nH]cc3c2cc1OC` [Example #135, N-(7,8-Dimethoxy-2H-pyrazolo[3,4-c]quinolin-4-yl)-N′,N′-dimethyl-benzene-1,4-diamine], for which the half-maximal inhibitory concentration (IC50) in test [1] fell in the range of 100 to 1000 nM. The Ki in test [2] was 10 to 100 nM.

On to `COc1ccc2nc(Nc3ccc(OCC(=O)O)c(OC)c3)c3n[nH]cc3c2c1` [Example #279, 2-(2-methoxy-4-((8-methoxy-2H-pyrazolo[3,4-c]quinolin-4-yl)amino)phenoxy)acetic-acid], for which the IC50 in test [1] is 100 to 1000 nM. Also, the Ki in test [2] was 100 to 1000 nM.

Consider `COc1ccc2nc(Nc3ccc(N4CCOCC4)c(F)c3)c3n[nH]cc3c2c1` [Example #181, (3-Fluoro-4-morpholin-4-yl-phenyl)-(8-methoxy-2H-pyrazolo[3,4-c]quinolin-4-yl)-amine], for which the IC50 in test [1] is 100 to 1000 nM. Besides, in test [2], the Ki was 10 to 100 nM.

With `COc1ccc2c(c1)nc(Nc1ccc(N3CCOCC3)cc1)c1n[nH]cc12` [Example #177, (7-Methoxy-2H-pyrazolo[3,4-c]quinolin-4-yl)-(4-morpholin-4-yl-phenyl)-amine], the IC50 in test [1] was 100 to 1000 nM. For the same compound, in test [2], the Ki was less than 10 nM.

Consider `COc1ccc2nc(Nc3cccc(S(=O)(=O)NC4CC4)c3)c3n[nH]cc3c2c1` [Example #344, N-cyclopropyl-3-((8-methoxy-2H-pyrazolo[3,4-c]quinolin-4-yl)amino)benzenesulfonamide], for which, in test [1], the IC50 lay within 10 to 100 nM. Besides, the Ki in test [2] was 10 to 100 nM.

Take `COc1cccc2c1nc(Nc1ccc(N3CCOCC3)cc1)c1[nH]ncc12` [Example #170, (6-Methoxy-2H-pyrazolo[3,4-c]quinolin-4-yl)-(4-morpholin-4-yl-phenyl)-amine]: the IC50 in test [1] lay in the range of 100 to 1000 nM. The Ki in test [2] is 10 to 100 nM.

As to `COc1ccc(Nc2nc3ccc(C#N)cc3c3c[nH]nc23)cc1OC` [Example #216, 4-(3,4-Dimethoxy-phenylamino)-2H-pyrazolo[3,4-c]quinoline-8-carbonitrile], in test [1], the IC50 was in the range of 100 to 1000 nM. Further, in test [2], the Ki was 10 to 100 nM.

On to `COc1ccc2nc(Nc3ccc4c(c3)NC(=O)CC4)c3n[nH]cc3c2c1` [Example #93, 7-(8-Methoxy-2H-pyrazolo[3,4-c]quinolin-4-ylamino)-3,4-dihydro-1H-quinolin-2-one], for which the IC50 in test [1] was less than 10 nM. Besides, the Ki in test [2] is less than 10 nM.

With `COc1ccc2c(c1)nc(Nc1ccc(OC)c(OC)c1)c1n[nH]cc12` [Example #175, (3,4-Dimethoxy-phenyl)-(7-methoxy-2H-pyrazolo[3,4-c]quinolin-4-yl)-amine], the IC50 in test [1] was in the range of 100 to 1000 nM. The Ki in test [2] is 10 to 100 nM.

On to `COc1ccc2nc(Nc3cc(C4CC4)[nH]n3)c3[nH]ncc3c2c1` [Example #97, (5-Cyclopropyl-1H-pyrazol-3-yl)-(8-methoxy-3H-pyrazolo[3,4-c]quinolin-4-yl)-amine], for which the IC50 in test [1] was in the range of 10 to 100 nM. Moreover, the Ki in test [2] was less than 10 nM.

On to `COc1ccc2nc(Nc3ccc4cnn(C)c4c3)c3n[nH]cc3c2c1` [Example #40, (8-Methoxy-2H-pyrazolo[3,4-c]quinolin-4-yl)-(1-methyl-1H-indazol-6-yl)-amine], for which the IC50 in test [1] fell in the range of 100 to 1000 nM. Besides, the Ki in test [2] was less than 10 nM.

On to `COc1ccc2nc(Nc3ccc4c(c3)OCO4)c3n[nH]cc3c2c1` [Example #100, Benzo[1,3]dioxol-5-yl-(8-methoxy-2H-pyrazolo[3,4-c]quinolin-4-yl)-amine], for which the half-maximal inhibitory concentration (IC50) in test [1] lay in the range of 100 to 1000 nM. The Ki in test [2] is 10 to 100 nM.

As for `COc1cccc2nc(Nc3ccc4c(c3)NCCO4)c3n[nH]cc3c12` [Example #198, (3,4-Dihydro-2H-benzo[1,4]oxazin-6-yl)-(9-methoxy-2H-pyrazolo[3,4-c]quinolin-4-yl)-amine], in test [1], the IC50 is 10 to 100 nM. Moreover, the Ki in test [2] is 100 to 1000 nM.

Regarding `COc1ccc2nc(Nc3ccc(N(C)C)cc3)c3n[nH]cc3c2c1` [Example #51, N-(8-Methoxy-2H-pyrazolo[3,4-c]quinolin-4-yl)-N′,N′-dimethyl-benzene-1,4-diamine], in test [1], the IC50 fell in the range of 10 to 100 nM. Also, in test [2], the Ki is 10 to 100 nM.

As for `COc1ccc2nc(Nc3ccc4c(c3)OCCO4)c3n[nH]cc3c2c1` [Example #101, (2,3-Dihydro-benzo[1,4]dioxin-6-yl)-(8-methoxy-2H-pyrazolo[3,4-c]quinolin-4-yl)-amine], the IC50 in test [1] lay within 100 to 1000 nM. In addition, the Ki in test [2] was 10 to 100 nM.

As to `COc1ccc2nc(Nc3cc(C(C)(C)C)[nH]n3)c3[nH]ncc3c2c1` [Example #95, (5-tert-Butyl-1H-pyrazol-3-yl)-(8-methoxy-3H-pyrazolo[3,4-c]quinolin-4-yl)-amine], in test [1], the IC50 fell in the range of 10 to 100 nM. The Ki in test [2] was 10 to 100 nM.

For the compound `COc1ccc2nc(Nc3ccc(C#N)cc3)c3n[nH]cc3c2c1` [Example #59, 4-(8-Methoxy-2H-pyrazolo[3,4-c]quinolin-4-ylamino)-benzonitrile], the IC50 in test [1] lay within 100 to 1000 nM. Moreover, the Ki in test [2] is 100 to 1000 nM.

Take `COc1ccc2nc(Nc3ccc(OC)c(F)c3)c3n[nH]cc3c2c1` [Example #125, (3-Fluoro-4-methoxy-phenyl)-(8-methoxy-2H-pyrazolo[3,4-c]quinolin-4-yl)-amine]: the IC50 in test [1] was in the range of 100 to 1000 nM. Besides, the Ki in test [2] was 10 to 100 nM.

`Fc1ccc2nc(Nc3ccc(N4CCOCC4)cc3)c3[nH]ncc3c2c1` [Example #325, 8-fluoro-N-(4-morpholinophenyl)-3H-pyrazolo[3,4-c]quinolin-4-amine]: the IC50 in test [1] fell in the range of 100 to 1000 nM. The Ki in test [2] was 10 to 100 nM.

Regarding `CCOc1ccc(Nc2nc3ccc(OC)cc3c3cn[nH]c23)cc1OC` [Example #105, (4-Ethoxy-3-methoxy-phenyl)-(8-methoxy-3H-pyrazolo[3,4-c]quinolin-4-yl)-amine], the IC50 in test [1] is 100 to 1000 nM. Besides, the Ki in test [2] was 10 to 100 nM.

Consider `COc1cccc2c1nc(Nc1ccc(C)cc1)c1n[nH]cc12` [Example #274, (6-Methoxy-2H-pyrazolo[3,4-c]quinolin-4-yl)-p-tolyl-amine], for which, in test [1], the IC50 was in the range of 100 to 1000 nM. Also, the Ki in test [2] is 10 to 100 nM.
